Assay results reported in patent US9340554B2, “IRAK inhibitors and uses thereof” (Nimbus Iris, Inc., priority 2011, dated 2016).

Molecular target: T1, IRAK4 (Homo sapiens, UniProt Q9NWZ3)
T1 construct: purchased CARNA Bioscience 09-145
T1 sequence (Q9NWZ3 1-460): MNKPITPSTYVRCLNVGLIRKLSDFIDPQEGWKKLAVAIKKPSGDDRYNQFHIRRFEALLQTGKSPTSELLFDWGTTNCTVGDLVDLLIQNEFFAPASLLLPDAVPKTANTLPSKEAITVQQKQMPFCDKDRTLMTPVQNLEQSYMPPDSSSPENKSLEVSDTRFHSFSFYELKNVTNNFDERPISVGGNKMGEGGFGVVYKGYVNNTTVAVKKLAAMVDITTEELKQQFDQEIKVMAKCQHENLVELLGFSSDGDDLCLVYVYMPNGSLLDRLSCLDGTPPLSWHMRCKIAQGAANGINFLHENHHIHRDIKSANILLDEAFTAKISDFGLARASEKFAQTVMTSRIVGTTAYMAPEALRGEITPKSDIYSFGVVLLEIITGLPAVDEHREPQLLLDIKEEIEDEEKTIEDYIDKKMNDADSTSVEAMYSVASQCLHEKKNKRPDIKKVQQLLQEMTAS
Test: IRAK-4 activity inhibition assay (Caliper, Peptide 8, 37 μM ATP)
Assay type: biochemical
Settings: 3.5 nM IRAK4, 1.5 μM Peptide 8, 37 μM ATP, 28° C. 40 minutes; read-out: IRAK-4 activity inhibition IC50
Method: A 1× kinase base buffer was prepared from 50 mM HEPES, pH 7.5 and 0.0015% Brij-35. A stop buffer was prepared from 100 mM HEPES, pH 7.5, 0.015% Brij-35, 0.2% Coating Reagent #3, and 50 mM EDTA.
Test compound was diluted to 50× of the final desired highest inhibitor concentration in reaction by 100% DMSO. 100 ul of this compound dilution was transferred to a well in a 96-well plate.
Test compound was serially diluted by transferring 30 μl to 60 μl of 100% DMSO in the next well and so forth for a total of 10 concentrations. 100 μl of 100% DMSO was added to two empty wells for no compound control and no enzyme control in the same 96-well plate.
A new 96-well plate was marked as intermediate plate. 5 μl of compound serial dilution was transferred from source plate to the corresponding wells of the intermediate plate. 45 μl of 1× kinase base buffer (KB buffer) was added to each well of the intermediate plate. The intermediate plate was placed for 10 min on a shaker.
5 μl of each well was transferred from the 96-well intermediate plate to a 384-well plate in duplicates. […] A2 of the 96-well plate is transferred to A3 and A4 of the 384-well plate, and so on.
IRAK4 and DTT in 1× kinase base buffer was added.
Assay plate already contained 5 μl of compound in 10% DMSO. Added 10 μl of 2.5× enzyme solution to each well of the 384-well assay plate, except no enzyme control wells. […] Added 10 μl of 1× kinase base buffer to no enzyme control wells in the assay plate. Incubated at room temperature for 10 min.
Added 10 μl of 2.5× peptide solution to each well of the 384-well assay plate. […] Incubated at 28° C. for 40 minutes. Added 25 μl of stop buffer to stop reaction. Collected data on Caliper.
Copied conversion % data from Caliper program. Converted conversion % values to percent inhibition values. Percent inhibition=(max−conversion %)/(max−min)*100, where “max” means the conversion % of DMSO control and “min” means the conversion % of no enzyme control.
The compound numbers correspond to the compound numbers in Table 1. […] “NA” stands for “not assayed.”

| IC50 [µM] | SMILES |
| --- | --- |
| < 5 | CN(CCc1ccccn1)[C@H]1CC[C@H](Nc2ncnc3sc4c(c23)CCC4)CC1 [Compound I-106, 1-N-methyl-1-N-[2-(pyridin-2-yl)ethyl]-4-N-[7-thia-9,11-diazatricyclo[6.4.0.0^[2,6]]dodeca-1(8),2(6),9,11-tetraen-12-yl]cyclohexane-1,4-diamine] |
| < 5 | CN(CCc1cccc(Cl)c1)[C@H]1CC[C@H](Nc2ncnc3sc4c(c23)CCC4)CC1 [Compound I-107, 1-N-[2-(3-chlorophenyl)ethyl]-1-N-methyl-4-N-[7-thia-9,11-diazatricyclo[6.4.0.0^[2,6]]dodeca-1(8),2(6),9,11-tetraen-12-yl]cyclohexane-1,4-diamine] |
| < 5 | CN(CCC(=O)O)[C@H]1CC[C@H](Nc2ncnc3sc4c(c23)CCC4)CC1 [Compound I-108, 3-[methyl[4-([7-thia-9,11-diazatricyclo[6.4.0.0^[2,6]]dodeca-1(8),2(6),9,11-tetraen-12-yl]amino)cyclohexyl]amino]propanoic acid] |
| < 5 | CN(CCC(N)=O)[C@H]1CC[C@H](Nc2ncnc3sc4c(c23)CCC4)CC1 [Compound I-109, 3-[methyl[4-([7-thia-9,11-diazatricyclo[6.4.0.0^[2,6]]dodeca-1(8),2(6),9,11-tetraen-12-yl]amino)cyclohexyl]amino]propanamide] |
| < 5 | CN(Cc1c[nH]c2ccccc12)[C@H]1CC[C@H](Nc2ncnc3sc4c(c23)CCC4)CC1 [Compound I-110] |
| < 5 | CN(Cc1ccncc1F)[C@H]1CC[C@H](Nc2ncnc3sc4c(c23)CCC4)CC1 [Compound I-111, 1-N-[(3-fluoropyridin-4-yl)methyl]-1-N-methyl-4-N-[7-thia-9,11-diazatricyclo[6.4.0.0^[2,6]]dodeca-1(12),2(6),8,10-tetraen-12-yl]cyclohexane-1,4-diamine] |
| < 5 | CN(CCc1ccccc1Cl)[C@H]1CC[C@H](Nc2ncnc3sc4c(c23)CCC4)CC1 [Compound I-112, 1-N-[2-(2-chlorophenyl)ethyl]-1-N-methyl-4-N-[7-thia-9,11-diazatricyclo[6.4.0.0^[2,6]]dodeca-1(12),2(6),8,10-tetraen-12-yl]cyclohexane-1,4-diamine] |
| 5 to 20 | CNC1CCCC(Oc2ncnc3sc4c(c23)CCC4)CC1 (centres unmarked) [Compound I-113, N-methyl-4-[7-thia-9,11-diazatricyclo[6.4.0.0^[2,6]]dodeca-1(12),2(6),8,10-tetraen-12-yloxy]cycloheptan-1-amine] |
| < 5 | CN(CC(=O)Nc1ccccc1)[C@H]1CC[C@H](Nc2ncnc3sc4c(c23)CCC4)CC1 [Compound I-114, 2-[methyl[4-([7-thia-9,11-diazatricyclo[6.4.0.0^[2,6]]dodeca-1(8),2(6),9,11-tetraen-12-yl]amino)cyclohexyl]amino]-N-phenylacetamide] |
| < 5 | c1ccc(CCN[C@H]2CC[C@H](Nc3ncnc4sc5c(c34)CCC5)CC2)cc1 [Compound I-115, 1-N-(2-phenylethyl)-4-N-[7-thia-9,11-diazatricyclo[6.4.0.0^[2,6]]dodeca-1(12),2(6),8,10-tetraen-12-yl]cyclohexane-1,4-diamine] |
| < 5 | CN(CCCc1ccccc1)[C@H]1CC[C@H](Oc2ncnc3sc4c(c23)CCC4)CC1 [Compound I-116, N-methyl-N-(3-phenylpropyl)-4-[7-thia-9,11-diazatricyclo[6.4.0.0^[2,6]]dodeca-1(8),2(6),9,11-tetraen-12-yloxy]cyclohexan-1-amine] |
| < 5 | CCN(Cc1ccccc1)[C@H]1CC[C@H](Oc2ncnc3sc4c(c23)CCC4)CC1 [Compound I-117, (1r,4r)-N-benzyl-4-((6,7-dihydro-5H-cyclopenta[4,5]thieno[2,3-d]pyrimidin-4-yl)oxy)-N-ethylcyclohexanamine] |
| < 5 | CN(CCCc1ccccc1)[C@H]1CC[C@H](Nc2ncnc3sc4c(c23)CCC4)CC1 [Compound I-118] |
| < 5 | c1ccc(CCCN[C@H]2CC[C@H](Nc3ncnc4sc5c(c34)CCC5)CC2)cc1 [Compound I-119, (1r,4r)-N1-(6,7-dihydro-5H-cyclopenta[4,5]thieno[2,3-d]pyrimidin-4-yl)-N4-(3-phenylpropyl)cyclohexane-1,4-diamine] |
| < 5 | CCN(Cc1ccccc1)[C@H]1CC[C@H](Nc2ncnc3sc4c(c23)CCC4)CC1 [Compound I-120, 1-N-benzyl-1-N-ethyl-4-N-[7-thia-9,11-diazatricyclo[6.4.0.0[2,6]]dodeca-1(8),2(6),9,11-tetraen-12-yl]cyclohexane-1,4-diamine] |
| < 5 | CN(CCc1ccccc1)[C@H]1CC[C@H](Oc2ncnc3sc4c(c23)CCC4)CC1 [Compound I-121, N-methyl-N-(2-phenylethyl)-4-[7-thia-9,11-diazatricyclo[6.4.0.0[2,6]]dodeca-1(8),2(6),9,11-tetraen-12-yloxy]cyclohexan-1-amine] |
| < 5 | CN(CC(N)=O)[C@H]1CC[C@H](Nc2ncnc3sc4c(c23)CCC4)CC1 [Compound I-122, 2-(((1r,4r)-4-((6,7-dihydro-5H-cyclopenta[4,5]thieno[2,3-d]pyrimidin-4-yl)amino)cyclohexyl)(methyl)amino)acetamide] |
| < 5 | CN(CC(=O)NCc1ccccc1)[C@H]1CC[C@H](Nc2ncnc3sc4c(c23)CCC4)CC1 [Compound I-123, N-benzyl-2-(((1r,4r)-4-((6,7-dihydro-5H-cyclopenta[4,5]thieno[2,3-d]pyrimidin-4-yl)amino)cyclohexyl)(methyl)amino)acetamide] |
| < 5 | CC(C)NC(=O)CN(C)[C@H]1CC[C@H](Nc2ncnc3sc4c(c23)CCC4)CC1 [Compound I-125, 2-(((1r,4r)-4-((6,7-dihydro-5H-cyclopenta[4,5]thieno[2,3-d]pyrimidin-4-yl)amino)cyclohexyl)(methyl)amino)-N-isopropylacetamide] |
| < 5 | CN(CC(=O)Nc1cccnc1)[C@H]1CC[C@H](Nc2ncnc3sc4c(c23)CCC4)CC1 [Compound I-126, 2-(((1r,4r)-4-((6,7-dihydro-5H-cyclopenta[4,5]thieno[2,3-d]pyrimidin-4-yl)amino)cyclohexyl)(methyl)amino)-N-(pyridin-3-yl)acetamide] |
| < 5 | CC(C)CN(C)[C@H]1CC[C@H](Nc2ncnc3sc4c(c23)CCC4)CC1 [Compound I-127, 1-N-methyl-1-N-(2-methylpropyl)-4-N-[7-thia-9,11-diazatricyclo[6.4.0.0[2,6]]dodeca-1(8),2(6),9,11-tetraen-12-yl]cyclohexane-1,4-diamine] |
| 20 to 50 | C[N+](C)([O-])[C@H]1CC[C@H](Nc2ncnc3sc4c(c23)CCC4)CC1 [Compound I-128, N-[4-(dimethylnitroso)cyclohexyl]-7-thia-9,11-diazatricyclo[6.4.0.0[2,6]]dodeca-1(8),2(6),9,11-tetraen-12-amine] |
| < 5 | CN(CC(=O)N1CCCCC1)[C@H]1CC[C@H](Nc2ncnc3sc4c(c23)CCC4)CC1 [Compound I-129, 2-[methyl[4-([7-thia-9,11-diazatricyclo[6.4.0.0[2,6]]dodeca-1(12),2(6),8,10-tetraen-12-yl]amino)cyclohexyl]amino]-1-(piperidin-1-yl)ethan-1-one] |
